In patent US7449463B2, “Morpholinyl containing benzimidazoles as inhibitors of respiratory syncytial virus replication” (Tibotec Pharmaceuticals Ltd., priority 2003, dated 2008):

Experiments:
[1] = test system: Respiratory Syncytial Virus; experiment: microbe, parasite or virus in culture; assay type: cell-based; conditions: for EC50: human respiratory syncytial virus
Procedure, shortened: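 HeLa cells infected with ~100 TCID50 RSV in Eagle's Basal Medium with 5% FCS, five-fold compound dilutions, 37° C, 5% CO2 for 7 days. Viability by MTT (A540 minus A690); EC50 for protection against cytopathic effect and CC50 from mock-infected wells, SI = CC50/EC50.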

[2] = pEC50 (−log of EC50 when expressed in molar units), protection against RSV cytopathology
[3] = 168 h, RSV-infected HeLa cells, MTT readout seven days after infection, −log of EC50 in molar units
[4] = RSV-infected HeLa cells, MTT readout seven days after infection, −log of EC50 in molar units

SMILES	melting point [°C]	EC50 [1, 3] [nM]	other results
Cc1cc(C)cc(N(CCCC(N)=O)Cc2ccc3nc(NCCCN4CCOCC4)n(C4CCCc5nc(C)c(C)nc54)c3c2)c1 (centres unmarked) [Compound 213, 4-{(3,5-Dimethyl-phenyl)-[3-(2,3-dimethyl-5,6,7,8-tetrahydro-quinoxalin-5-yl)-2-(3-morpholin-4-yl-propylamino)-3H-benzoimidazol-5-ylmethyl]-amino}-butyramide]	109	–	EC50 [1, 2]: 1.58 nM
Cc1cc(C)cc(NCc2ccc3nc(NCCCN4CC(C)OC(C)C4)n(Cc4nc(C)ccc4O)c3c2)c1 (centres unmarked) [Compound 172, 2-{2-[3-(2,6-dimethyl-morpholin-4-yl)-propylamino]-6-[(3,5-dimethyl-phenylamino)-methyl]-benzoimidazol-1-ylmethyl}-6-methyl-pyridin-3-ol]	192	15.8	–
Cc1ccc(CCO)c(NCc2ccc3nc(NCCCN4CCOCC4)n(C4CCCc5nc(C)c(C)nc54)c3c2)c1 (centres unmarked) [Compound 193, 2-(2-{[3-(2,3-Dimethyl-5,6,7,8-tetrahydroquinoxalin-5-yl)-2-(3-morpholin-4-yl-propylamino)-3H-benzoimidazol-5-ylmethyl]-amino}-4-methyl-phenyl)-ethanol]	162	–	EC50 [1, 2]: 0.501 nM
Cc1ccc(O)c(Cn2c(NC3CCNC(CCN4CCOCC4)C3)nc3ccc(C=Cc4ccccc4)cc32)n1 (centres unmarked) [Compound 169, 6-methyl-2-{2-[2-(2-morpholin-4-yl-ethyl)-piperidin-4-ylamino]-6-styryl-benzoimidazol-1-ylmethyl}-pyridin-3-ol]	224	631	–
Cc1cc(C)cc(N(CCCC(N)=O)Cc2ccc3nc(NCCCN4CCOCC4)n(Cc4cccc(Br)n4)c3c2)c1 [Compound 261, 4-[[3-(6-Bromo-pyridin-2-ylmethyl)-2-(3-morpholin-4-yl-propyl-amino)-3H-benzoimidazol-5-ylmethyl]-(3,5-dimethyl-phenyl)-amino]-butyramide]	82	–	EC50 [1, 2]: 31.6 nM
Cc1ccc(O)c(Cn2c(NC3CCNC(CCN4CCOCC4)C3)nc3ccc(CCc4ccccc4)cc32)n1 (centres unmarked) [Compound 165, 6-methyl-2-{2-[2-(2-morpholin-4-yl-ethyl)-piperidin-4-ylamino]-6-phenethyl-benzoimidazol-1-ylmethyl}-pyridin-3-ol]	159	126	–
Cc1cc(C)c2nc(N(CCN3CCOCC3)C3CCNCC3)n(Cc3nc(C)ccc3O)c2c1 [Compound 170, 2-[4,6-dimethyl-2-(2-morpholin-4-ylethyl-piperidin-4-ylamino)-benzoimidazol-1-ylmethyl]-6-methyl-pyridin-3-ol]	237	794	–
Cc1ccc(CCCO)c(NCc2ccc3nc(NCCCN4CCOCC4)n(Cc4cccc5cccnc45)c3c2)c1 [Compound 234, 3-(4-Methyl-2-{[2-(3-morpholin-4-yl-propylamino)-3-quinolin-8-ylmethyl-3H-benzoimidazol-5-ylmethyl]-amino}-phenyl)-propan-1-ol]	165	–	EC50 [1, 2]: 5.01 nM
Cc1cc(C)c2nc(NCCCN3CCOC(CC(N)=O)C3)n(Cc3nc(C)ccc3O)c2c1 (centres unmarked) [Compound 191, 2-(4-{3-[1-(3-Hydroxy-6-methyl-pyridin-2-ylmethyl)-4,6-dimethyl-1H-benzoimidazol-2-ylamino]-propyl}-morpholin-2-yl)-acetamide]	148	158	–
COc1ccc(C)nc1Cn1c(NCCCN2CCOCC2)nc2ccc(CO)cc21 [Compound 346]	–	–	Activity [1, 2]: 4.9
Cc1ccc(C=CCO)c(NCc2ccc3nc(NCCCN4CCOCC4)n(Cc4nc(C)ccc4O)c3c2)c1 [Compound 19]	–	–	Activity [1, 4]: 9.3
Cc1ccc(OCCO)c(NCc2ccc3nc(NCCCN4CCOCC4)n(Cc4nc(C)ccc4O)c3c2)c1 [Compound 5]	–	–	Activity [1, 4]: 9.8
Cc1cccc(NCc2ccc3nc(NC4CCN(CCN5CCOCC5)CC4)n(Cc4nc(C)ccc4O)c3c2)c1 [Compound 164]	–	–	Activity [1, 4]: 7.5
Cc1ccc(CCO)c(NCc2ccc3nc(NCCCN4CCOCC4)n(Cc4cccc5c4ncn5C)c3c2)c1 [Compound 229]	–	–	Activity [1, 2]: 8.4
Cc1ccc(CCCCO)c(NCc2ccc3nc(NCCCN4CCOCC4)n(Cc4nc(C)ccc4O)c3c2)c1 [Compound 20]	–	–	Activity [1, 4]: 9.2
Cc1cccc(Cn2c(NCCCN3CCOCC3)nc3ccc(CNc4ccccc4CCO)cc32)n1 [Compound 333]	–	–	Activity [1, 2]: 5.5
Cc1ccc(O)c(Cn2c(NCCCN3CCOCC3)nc3ccc(CNc4cccc(C)c4CCO)cc32)n1 [Compound 25]	–	–	Activity [1, 4]: 8.9
Cc1nc2c(nc1C)C(n1c(NCCCN3CCOCC3)nc3cc(CNc4ccccc4CCO)ccc31)CCC2 (centres unmarked) [Compound 286]	–	–	Activity [1, 2]: 7.1
Cc1ccc(O)c(Cn2c(NCCCN3CCOCC3)nc3ccc(CNc4cc(Br)ccc4CCCO)cc32)n1 [Compound 2]	–	–	Activity [1, 4]: 10
Cc1ccc(CCCO)c(NCc2ccc3nc(NCCCN4CCOCC4)n(Cc4ccccc4O)c3c2)c1 [Compound 227]	–	–	Activity [1, 2]: 8.5
C#Cc1ccc(CCO)c(NCc2ccc3nc(NCCCN4CCOCC4)n(Cc4cccc5c4ncn5C)c3c2)c1 [Compound 236]	–	–	Activity [1, 2]: 8.1
Cc1ccc(O)c(Cn2c(NCCCN3CCOCC3)nc3ccc(CNc4cc(S(C)(=O)=O)ccc4CCO)cc32)n1 [Compound 48]	–	20	–

Further lines, with some results ahead:

melting point [°C]	SMILES	EC50 [1, 3] [nM]	other results
162	Cc1ccc(O)c(Cn2c(NCCCN3CCOCC3)nc3ccc(Cc4c(C)cc(NCCO)cc4C)cc32)n1 [Compound 143, 2-[6-[4-(2-hydroxy-ethylamino)-2,6-dimethylbenzyl]-2-(3-morpholin-4-yl-propylamino)-benzoimidazol-1-ylmethyl]-6-methyl-pyridin-3-ol]	10	–
196	Cc1cc(C)cc(N(CCN)Cc2ccc3nc(NCCCN4CCOCC4)n(Cc4nc(C)ccc4O)c3c2)c1 [Compound 66, 2-[6-{[(2-amino-ethyl)-(3,5-dimethyl-phenyl)-amino]-methyl}-2-(3-morpholin-4-yl-propylamino)-benzoimidazol-1-ylmethyl]-6-methyl-pyridin-3-ol]	1.26	–
170	Cc1cc(C)cc(N(CCCC(N)=O)Cc2ccc3nc(NCCCN4CCOCC4)n(Cc4nc(C)ccc4O)c3c2)c1 [Compound 59, 2-[6-{[(3,5-dimethyl-phenyl)-(3-aminocarbonyl-propyl)-amino]-methyl}-2-(3-morpholin-4-yl-propylamino)-benzimidazol-1-ylmethyl]-6-methyl-pyridin-3-ol]	0.251	–
172	Cc1cc(C)cc(NC(=O)c2ccc3nc(NCCCN4CCOCC4)n(Cc4nc(C)ccc4O)c3c2)c1 [Compound 160]	> 10000	–
198	Cc1cc(C)cc(NCc2ccc3nc(NCC(O)CN4CCOCC4)n(Cc4nc(C)ccc4O)c3c2)c1 (centres unmarked) [Compound 171, 2-[6-[(3,5-dimethyl-phenylamino)-methyl]-2-(2-hydroxy-3-morpholin-4-yl-propyl-amino)-benzoimidazol-1-ylmethyl]-6-methyl-pyridin-3-ol]	2.51	–
114	Cc1ccc(O)c(Cn2c(NCCCN3CCOCC3)nc3ccc(CNc4c(C)cc(CCC#N)cc4C)cc32)n1 [Compound 49, 3-(4-{[3-(3-hydroxy-6-methyl-pyridin-2-ylmethyl)-2-(3-morpholin-4-yl-propylamino)-3H-benzoimidazol-5-ylmethyl]-amino}-3,5-dimethyl-phenyl)-propionitrile]	39.8	–
150	Cc1cc(C)cc(NCc2ccc3nc(NC4CCNC(CCN5CCOCC5)C4)n(Cc4nc(C)ccc4O)c3c2)c1 (centres unmarked) [Compound 163, 2-{6-[(3,5-dimethyl-phenylamino)-methyl]-2-[2-(2-morpholin-4-yl-ethyl)-piperidin-4-ylamino]-benzoimidazol-1-ylmethyl}-6-methyl-pyridin-3-ol]	12.6	–
225	Cc1ccc(I)c(NCc2ccc3nc(NCCCN4CCOCC4)n(Cc4nc(C)ccc4O)c3c2)c1 [Compound 50]	50.1	–
130	CCOC(=O)CCCN(Cc1ccc2nc(NCCCN3CCOCC3)n(Cc3nc(C)ccc3O)c2c1)c1cc(C)cc(C)c1 [Compound 71, 4-{(3,5-dimethyl-phenyl)-[3-(3-hydroxy-6-methyl-pyridin-2-ylmethyl)-2-(3-morpholin-4-yl-propylamino)-3H-benzoimidazol-5-ylmethyl]-amino}-butyric acid ethyl ester]	2.51	–
212	Cc1ccc2c(c1)N(Cc1ccc3nc(NCCCN4CCOCC4)n(Cc4nc(C)ccc4O)c3c1)CC2 [Compound 153]	50.1	–
168	Cc1cccc(NC(=O)c2ccc3nc(NCCCN4CCOCC4)n(Cc4nc(C)ccc4O)c3c2)c1 [Compound 159]	20000	–
180	Cc1cc(C)cc(N(CCO)Cc2ccc3nc(NCCCN4CCOCC4)n(Cc4nc(C)ccc4O)c3c2)c1 [Compound 58, 2-[6-{[(3,5-dimethyl-phenyl)-(2-hydroxy-ethyl)-amino]-methyl}-2-(3-morpholin-4-yl-propylamino)-benzimidazol-1-ylmethyl]-6-methyl-pyridin-3-ol]	0.398	–
170	Cc1cccc(NC(=O)c2ccc3c(c2)nc(NCCCN2CCOCC2)n3Cc2nc(C)ccc2O)c1 [Compound 158]	> 100000	–
199	Cc1cc(C)cc(NCc2ccc3nc(NCCCN4CCOCC4)n(Cc4nc(C)ccc4O)c3c2)c1 [Compound 23, 2-[6-[(3,5-dimethyl-phenylamino)-methyl]-2-(3-morpholin-4-yl-propylamino)-benzoimidazol-1-ylmethyl]-6-methyl-pyridin-3-ol]	1	–
